Measurements reported in patent publication US10358436B2, “Kinase inhibitors and method of treating cancer” (University Health Network, priority 2010, dated 2019).

Experiments:
[1] = target: c-Met kinase (Homo sapiens (Human), UniProt P08581); assay: Kinase selectivity assay (CEREP HTRF panel); assay type: biochemical
[2] = target: CHK1 (Homo sapiens (Human), UniProt O14757); assay: Kinase selectivity assay (CEREP HTRF panel); assay type: biochemical
[3] = target: IGF1R kinase (Homo sapiens (Human), UniProt P08069); assay: Kinase selectivity assay (CEREP HTRF panel); assay type: biochemical
[4] = target: PKA (Homo sapiens (Human), UniProt P17612); assay: Kinase selectivity assay (CEREP HTRF panel); assay type: biochemical
[5] = target: BMX kinase (Etk) (Homo sapiens (Human), UniProt P51813); assay: Kinase selectivity assay (CEREP HTRF panel); assay type: biochemical
[6] = target: PDK1 (Homo sapiens (Human), UniProt O15530); assay: Kinase selectivity assay (CEREP HTRF panel); assay type: biochemical
[7] = target: IRK (InsR) (Homo sapiens (Human), UniProt P06213); assay: Kinase selectivity assay (CEREP HTRF panel); assay type: biochemical
[8] = target: JNK 2 (Homo sapiens (Human), UniProt P45984); assay: Kinase selectivity assay (CEREP HTRF panel); assay type: biochemical
[9] = target: Src kinase (Homo sapiens (Human), UniProt P12931); assay: Kinase selectivity assay (CEREP HTRF panel); assay type: biochemical
[10] = target: PKCalpha (Homo sapiens (Human), UniProt P17252); assay: Kinase selectivity assay (CEREP HTRF panel); assay type: biochemical
[11] = target: FGFR4 kinase (Homo sapiens (Human), UniProt P22455); assay: Kinase selectivity assay (CEREP HTRF panel); assay type: biochemical
[12] = target: MEK1/MAP2K1 (Homo sapiens (Human), UniProt Q02750); assay: Kinase selectivity assay (CEREP HTRF panel); assay type: biochemical
[13] = target: Brk (Homo sapiens (Human), UniProt Q13882); assay: Kinase selectivity assay (CEREP HTRF panel); assay type: biochemical
[14] = target: Akt1/PKBalpha (Homo sapiens (Human), UniProt P31749); assay: Kinase selectivity assay (CEREP HTRF panel); assay type: biochemical
[15] = target: Fyn kinase (Homo sapiens (Human), UniProt P06241); assay: Kinase selectivity assay (CEREP HTRF panel); assay type: biochemical
[16] = target: MAPKAPK2 (Homo sapiens (Human), UniProt P49137); assay: Kinase selectivity assay (CEREP HTRF panel); assay type: biochemical
[17] = target: ERK1 (Homo sapiens (Human), UniProt P27361); assay: Kinase selectivity assay (CEREP HTRF panel); assay type: biochemical
[18] = target: PKCgamma (Homo sapiens (Human), UniProt P05129); assay: Kinase selectivity assay (CEREP HTRF panel); assay type: biochemical
[19] = target: Ret kinase (Homo sapiens (Human), UniProt P07949); assay: Kinase selectivity assay (CEREP HTRF panel); assay type: biochemical
[20] = target: RSK2 (Homo sapiens (Human), UniProt P51812); assay: Kinase selectivity assay (CEREP HTRF panel); assay type: biochemical
[21] = target: KDR kinase (VEGFR2) (Homo sapiens (Human), UniProt P35968); assay: Kinase selectivity assay (CEREP HTRF panel); assay type: biochemical
Experimental: (§2) The assays were performed using standard HTRF assay methods as documented by CEREP against the human orthologues of Ab1 kinase, Akt1/PKBa, AMPKa, BMX kinase (Etk), Brk, CaMK2a, CaMK4, CDC2/CDK1 (cycB), CHK1, CHK2, c-Met kinase, CSK, EphB4 kinase, ERK1, ERK2 (P42mapk), FGFR2 kinase, FGFR4 kinase, FLT-1 kinase (VEGFR1), FLT-3 kinase, Fyn kinase, IGF1R kinase, IRK (InsR), JNK 2, KDR kinase (VEGFR2), Lck kinase, Lyn kinase, MAPKAPK2, MEK1/MAP2K1, p38a kinase, p38d kinase, p38 g kinase, PDGFRb kinase, PDK1, PKA, PKCa, PKCb1, PKCb2, PKCg, Ret kinase, ROCK2, RSK2, Src kinase, Syk, and TRKA (Table 3).

[22] = target: ERK2 (P42mapk) (Homo sapiens (Human), UniProt P28482); assay: Kinase selectivity assay (CEREP HTRF panel); assay type: biochemical; conditions: read-out: % Inhibition @ 10 uM, ERK (P42mapk)
[23] = target: FLT3 (Homo sapiens (Human), UniProt P36888); assay: Kinase selectivity assay (CEREP HTRF panel); assay type: biochemical
Experimental: as §2

[24] = target: PDGFRbeta kinase (Homo sapiens (Human), UniProt P09619); assay: Kinase selectivity assay (CEREP HTRF panel); assay type: biochemical
[25] = target: Lck (Homo sapiens (Human), UniProt P06239); assay: Kinase selectivity assay (CEREP HTRF panel); assay type: biochemical
[26] = target: Abl (Homo sapiens (Human), UniProt P00519); assay: Kinase selectivity assay (CEREP HTRF panel); assay type: biochemical
[27] = target: PKCbeta 2 (Homo sapiens (Human), UniProt P05771); assay: Kinase selectivity assay (CEREP HTRF panel); assay type: biochemical
[28] = target: ROCK2 (Homo sapiens (Human), UniProt O75116); assay: Kinase selectivity assay (CEREP HTRF panel); assay type: biochemical
[29] = target: PKCbeta 1 (Homo sapiens (Human), UniProt P05771); assay: Kinase selectivity assay (CEREP HTRF panel); assay type: biochemical
[30] = target: EphB4 kinase (Homo sapiens (Human), UniProt P54760); assay: Kinase selectivity assay (CEREP HTRF panel); assay type: biochemical
[31] = target: FLT-1 kinase (VEGFR1) (Homo sapiens (Human), UniProt P17948); assay: Kinase selectivity assay (CEREP HTRF panel); assay type: biochemical
[32] = target: CSK (Homo sapiens (Human), UniProt P41240); assay: Kinase selectivity assay (CEREP HTRF panel); assay type: biochemical
[33] = target: CHK2 (Homo sapiens (Human), UniProt O96017); assay: Kinase selectivity assay (CEREP HTRF panel); assay type: biochemical
[34] = target: CaMK4 (Homo sapiens (Human), UniProt Q16566); assay: Kinase selectivity assay (CEREP HTRF panel); assay type: biochemical
[35] = target: p38alpha kinase (Homo sapiens (Human), UniProt Q16539); assay: Kinase selectivity assay (CEREP HTRF panel); assay type: biochemical
[36] = target: TRKA (Homo sapiens (Human), UniProt P04629); assay: Kinase selectivity assay (CEREP HTRF panel); assay type: biochemical
[37] = target: CaMK2alpha (Homo sapiens (Human), UniProt Q9UQM7); assay: Kinase selectivity assay (CEREP HTRF panel); assay type: biochemical
[38] = target: p38delta kinase (Homo sapiens (Human), UniProt O15264); assay: Kinase selectivity assay (CEREP HTRF panel); assay type: biochemical
[39] = target: p38gamma kinase (Homo sapiens (Human), UniProt P53778); assay: Kinase selectivity assay (CEREP HTRF panel); assay type: biochemical
[40] = target: Lyn kinase (Homo sapiens (Human), UniProt P07948); assay: Kinase selectivity assay (CEREP HTRF panel); assay type: biochemical
[41] = test system: HUV-EC-C cells; assay: In vitro angiogenesis assay (tube formation); assay type: cell-based; conditions: 4 hr
Experimental: Activity against these RTKs can result in antiangiogenic activity which is associated with slowed tumor growth and/or tumor regression. To measure the antiangiogenic effects of compounds of the invention, selected examples were tested in an angiogenesis assay as described below.
HUV-EC-C cells were obtained from the American Type Culture Collection (ATCC, CRL-1730), and were used at early passage for the assay. The in vitro Angiogenesis Assay Kit (Chemicon) was used according to the manufacturer's recommendation. An ice-cold mixture of ECMatrix was transferred into a precooled 96-well plate. After the matrix solution had solidified (>1 hr incubation at 37° C.), 8,000 cells were mixed with the appropriate inhibitor concentration (in 100 microliters EGM-2) and plated into each well. The clinical antiangiogenic, Sutent was used as a positive control in comparison to a compound of the invention, A13. After incubation at 37° C. for 4 hr, tube formation was inspected. Two methods, pattern recognition and branch point counting, were used to quantify the progression of angiogenesis and expressed as a percentage of the control tube count (FIGS. 1 and 2).

[42] = test system: AMPKalpha; assay: Kinase selectivity assay (CEREP HTRF panel); assay type: biochemical, human
[43] = target: Aurora A (Homo sapiens (Human), UniProt O14965); assay: Aurora A inhibition assay (Z-Lyte); assay type: biochemical
[44] = target: PLK3 (Homo sapiens (Human), UniProt Q9H4B4); assay: PLK3 inhibition assay (Z-Lyte); assay type: biochemical
Experimental: (§1) PLK3 inhibition was determined using the Z-Lyte assay kit from Invitrogen (cat #PV3802). The assay was performed using the recommended manufacturer's instructions with 100 μM ATP and 21 nM PLK3 (Invitrogen cat #PV3812). The % inhibition values were determined according to the manufacturer's directions and IC50 values were obtained using a non-linear 4 point logistic curve fit (XLfit4, IDBS).

[45] = target: CDC2/CDK1 (cycB) (Homo sapiens (Human), UniProt P06493); assay: Kinase selectivity assay (CEREP HTRF panel); assay type: biochemical
[46] = target: PLK2 (Homo sapiens (Human), UniProt Q9NYY3); assay: PLK2 inhibition assay (Z-Lyte); assay type: biochemical
Experimental: as §1, with “PLK2” for “PLK3”, “60” for “100”, “133” for “21”, “#PV4204).” for “#PV3812).”, “IDBS)” for “IDBS).”

[47] = target: PLK1 (Homo sapiens (Human), UniProt P53350); assay: PLK1 inhibition assay (Z-Lyte); assay type: biochemical
Experimental: PLK1 inhibition was determined using the Z-Lyte assay kit from Invitrogen (cat #PV3802). The assay was performed using the recommended manufacturer's instructions with 25 μM ATP and 8 nM PLK1 (Invitrogen cat #PV3501). The % inhibition values were determined according to the manufacturer's directions and IC50 values were obtained using a non-linear 4 point logistic curve fit (XLfit4, IDBS)

Chain of KDR kinase (VEGFR2) (P35968 20-1356): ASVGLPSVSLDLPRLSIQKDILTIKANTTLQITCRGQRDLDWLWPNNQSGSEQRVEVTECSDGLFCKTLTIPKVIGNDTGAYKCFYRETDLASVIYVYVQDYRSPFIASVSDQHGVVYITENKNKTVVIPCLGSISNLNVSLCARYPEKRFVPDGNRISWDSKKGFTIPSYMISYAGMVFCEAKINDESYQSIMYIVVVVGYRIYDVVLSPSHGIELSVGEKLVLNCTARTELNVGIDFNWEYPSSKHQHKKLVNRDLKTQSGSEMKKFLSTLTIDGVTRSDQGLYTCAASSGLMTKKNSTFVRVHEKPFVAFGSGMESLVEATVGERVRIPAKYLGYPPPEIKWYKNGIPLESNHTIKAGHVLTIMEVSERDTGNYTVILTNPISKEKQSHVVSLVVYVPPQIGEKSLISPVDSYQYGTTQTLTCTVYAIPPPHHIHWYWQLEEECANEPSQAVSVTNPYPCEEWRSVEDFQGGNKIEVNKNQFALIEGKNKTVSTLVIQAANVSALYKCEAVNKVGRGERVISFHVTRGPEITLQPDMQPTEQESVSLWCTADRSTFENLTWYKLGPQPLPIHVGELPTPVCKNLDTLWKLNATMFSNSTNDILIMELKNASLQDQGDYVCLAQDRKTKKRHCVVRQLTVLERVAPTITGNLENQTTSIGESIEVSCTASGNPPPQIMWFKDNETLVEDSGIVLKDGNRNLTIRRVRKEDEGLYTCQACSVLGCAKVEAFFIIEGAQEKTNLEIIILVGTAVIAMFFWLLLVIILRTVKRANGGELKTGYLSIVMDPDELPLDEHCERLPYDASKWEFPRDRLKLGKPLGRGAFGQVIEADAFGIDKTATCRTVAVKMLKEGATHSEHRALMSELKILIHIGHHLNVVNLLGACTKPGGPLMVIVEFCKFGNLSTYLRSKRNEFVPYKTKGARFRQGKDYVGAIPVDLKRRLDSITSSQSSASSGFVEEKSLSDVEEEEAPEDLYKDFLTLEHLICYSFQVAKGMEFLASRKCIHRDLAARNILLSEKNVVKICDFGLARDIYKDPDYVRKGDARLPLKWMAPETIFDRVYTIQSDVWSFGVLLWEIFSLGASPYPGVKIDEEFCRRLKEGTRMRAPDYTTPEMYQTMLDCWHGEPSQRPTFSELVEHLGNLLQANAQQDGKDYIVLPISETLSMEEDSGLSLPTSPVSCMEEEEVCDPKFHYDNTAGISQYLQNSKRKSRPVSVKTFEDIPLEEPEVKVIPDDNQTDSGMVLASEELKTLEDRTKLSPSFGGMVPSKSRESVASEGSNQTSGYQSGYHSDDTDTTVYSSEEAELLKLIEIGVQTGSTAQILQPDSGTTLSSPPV
Chain of FLT3 (P36888 27-993): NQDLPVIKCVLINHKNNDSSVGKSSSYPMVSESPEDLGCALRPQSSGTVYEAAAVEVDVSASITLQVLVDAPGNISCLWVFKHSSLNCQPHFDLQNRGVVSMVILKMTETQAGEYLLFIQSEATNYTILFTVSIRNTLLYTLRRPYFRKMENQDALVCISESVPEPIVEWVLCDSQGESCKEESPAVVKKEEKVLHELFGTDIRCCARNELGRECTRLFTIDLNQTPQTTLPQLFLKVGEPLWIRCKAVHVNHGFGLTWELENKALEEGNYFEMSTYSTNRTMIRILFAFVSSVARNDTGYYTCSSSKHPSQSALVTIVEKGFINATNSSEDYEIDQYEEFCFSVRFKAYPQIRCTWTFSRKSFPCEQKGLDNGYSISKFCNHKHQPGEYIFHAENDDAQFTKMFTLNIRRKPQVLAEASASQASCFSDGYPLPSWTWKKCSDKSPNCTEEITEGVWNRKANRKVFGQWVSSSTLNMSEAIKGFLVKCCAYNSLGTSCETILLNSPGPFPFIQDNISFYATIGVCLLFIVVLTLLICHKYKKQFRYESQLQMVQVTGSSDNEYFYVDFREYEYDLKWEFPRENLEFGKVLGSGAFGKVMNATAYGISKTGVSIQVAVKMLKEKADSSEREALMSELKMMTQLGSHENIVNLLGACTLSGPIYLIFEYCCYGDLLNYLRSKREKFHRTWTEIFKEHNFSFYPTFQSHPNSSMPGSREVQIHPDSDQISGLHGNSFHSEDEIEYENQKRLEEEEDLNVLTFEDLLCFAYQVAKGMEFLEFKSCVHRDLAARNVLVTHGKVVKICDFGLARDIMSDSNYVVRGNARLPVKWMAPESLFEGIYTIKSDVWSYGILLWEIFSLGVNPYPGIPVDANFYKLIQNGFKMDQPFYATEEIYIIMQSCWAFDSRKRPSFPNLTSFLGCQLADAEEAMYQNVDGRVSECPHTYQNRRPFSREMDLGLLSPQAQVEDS
Chain of PKCbeta 2 (P05771 other isoform, or with tags, fused parts or gaps): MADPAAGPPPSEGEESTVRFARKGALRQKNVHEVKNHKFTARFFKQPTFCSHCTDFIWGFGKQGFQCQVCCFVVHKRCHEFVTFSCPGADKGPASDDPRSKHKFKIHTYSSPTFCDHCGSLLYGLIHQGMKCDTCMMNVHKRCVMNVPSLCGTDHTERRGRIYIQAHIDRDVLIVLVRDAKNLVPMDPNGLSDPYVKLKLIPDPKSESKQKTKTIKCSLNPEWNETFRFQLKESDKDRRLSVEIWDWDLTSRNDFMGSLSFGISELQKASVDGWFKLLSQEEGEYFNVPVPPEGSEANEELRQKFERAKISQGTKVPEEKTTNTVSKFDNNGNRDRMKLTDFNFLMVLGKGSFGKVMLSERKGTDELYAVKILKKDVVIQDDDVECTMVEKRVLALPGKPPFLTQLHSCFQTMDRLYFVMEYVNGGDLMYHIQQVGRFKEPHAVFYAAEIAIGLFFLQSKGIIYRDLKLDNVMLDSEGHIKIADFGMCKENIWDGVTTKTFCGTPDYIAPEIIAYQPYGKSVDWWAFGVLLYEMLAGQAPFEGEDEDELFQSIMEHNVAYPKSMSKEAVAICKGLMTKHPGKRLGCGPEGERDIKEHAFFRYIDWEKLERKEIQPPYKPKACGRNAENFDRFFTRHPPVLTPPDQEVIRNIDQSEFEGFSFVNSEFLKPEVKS
Chain of FGFR4 kinase (P22455 22-802): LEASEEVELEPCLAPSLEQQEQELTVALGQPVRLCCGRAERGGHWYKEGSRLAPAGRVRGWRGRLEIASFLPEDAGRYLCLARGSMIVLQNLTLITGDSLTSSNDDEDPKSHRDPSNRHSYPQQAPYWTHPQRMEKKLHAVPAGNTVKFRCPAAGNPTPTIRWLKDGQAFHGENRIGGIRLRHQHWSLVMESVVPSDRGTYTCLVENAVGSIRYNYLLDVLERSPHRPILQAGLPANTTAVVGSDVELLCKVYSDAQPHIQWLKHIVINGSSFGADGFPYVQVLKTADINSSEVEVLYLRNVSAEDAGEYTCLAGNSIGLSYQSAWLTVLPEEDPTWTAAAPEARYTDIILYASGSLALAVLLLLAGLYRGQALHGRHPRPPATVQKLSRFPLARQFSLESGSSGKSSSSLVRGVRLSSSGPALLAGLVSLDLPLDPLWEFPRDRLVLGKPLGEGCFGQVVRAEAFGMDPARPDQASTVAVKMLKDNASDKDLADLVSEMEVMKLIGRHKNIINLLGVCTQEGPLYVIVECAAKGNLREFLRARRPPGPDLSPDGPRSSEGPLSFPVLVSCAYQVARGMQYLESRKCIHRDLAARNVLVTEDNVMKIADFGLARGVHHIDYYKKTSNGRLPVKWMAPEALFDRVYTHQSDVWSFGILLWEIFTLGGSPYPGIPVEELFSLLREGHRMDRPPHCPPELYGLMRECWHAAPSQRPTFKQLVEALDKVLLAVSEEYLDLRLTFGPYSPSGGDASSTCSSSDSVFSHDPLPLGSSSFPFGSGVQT
Chain of ERK1 (P27361 whole entry): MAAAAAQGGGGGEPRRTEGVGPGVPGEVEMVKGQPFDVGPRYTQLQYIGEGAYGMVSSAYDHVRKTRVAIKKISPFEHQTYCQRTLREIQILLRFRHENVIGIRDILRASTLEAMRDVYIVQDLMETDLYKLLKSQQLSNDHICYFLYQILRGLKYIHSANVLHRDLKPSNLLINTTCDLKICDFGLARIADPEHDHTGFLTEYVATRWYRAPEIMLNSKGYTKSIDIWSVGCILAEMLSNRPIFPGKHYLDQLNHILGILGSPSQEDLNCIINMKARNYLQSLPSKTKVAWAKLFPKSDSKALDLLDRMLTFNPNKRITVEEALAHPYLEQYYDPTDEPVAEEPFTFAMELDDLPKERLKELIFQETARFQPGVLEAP
Chain of CSK (P41240 whole entry): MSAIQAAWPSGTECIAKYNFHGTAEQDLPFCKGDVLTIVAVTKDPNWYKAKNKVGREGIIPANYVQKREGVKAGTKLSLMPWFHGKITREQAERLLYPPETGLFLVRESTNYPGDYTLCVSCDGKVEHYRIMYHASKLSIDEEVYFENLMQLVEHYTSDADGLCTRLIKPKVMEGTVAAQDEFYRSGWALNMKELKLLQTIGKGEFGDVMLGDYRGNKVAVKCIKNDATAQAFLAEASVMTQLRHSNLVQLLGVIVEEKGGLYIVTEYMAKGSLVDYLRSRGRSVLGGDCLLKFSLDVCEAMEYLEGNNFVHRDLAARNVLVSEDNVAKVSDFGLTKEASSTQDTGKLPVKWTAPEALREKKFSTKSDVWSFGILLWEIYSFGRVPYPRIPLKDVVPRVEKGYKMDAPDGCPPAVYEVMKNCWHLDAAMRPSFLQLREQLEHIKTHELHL
Chain of p38gamma kinase (P53778 whole entry): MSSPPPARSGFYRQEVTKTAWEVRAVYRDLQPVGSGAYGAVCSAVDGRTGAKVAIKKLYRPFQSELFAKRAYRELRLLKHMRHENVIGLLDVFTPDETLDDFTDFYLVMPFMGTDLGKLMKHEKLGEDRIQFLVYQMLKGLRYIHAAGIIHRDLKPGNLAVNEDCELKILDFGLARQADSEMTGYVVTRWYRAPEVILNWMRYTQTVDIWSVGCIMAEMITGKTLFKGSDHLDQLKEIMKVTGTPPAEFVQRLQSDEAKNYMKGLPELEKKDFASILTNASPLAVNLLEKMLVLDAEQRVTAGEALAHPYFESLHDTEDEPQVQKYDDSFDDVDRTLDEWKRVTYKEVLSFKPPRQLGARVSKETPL

## O=C1Nc2ccccc2[C@]12C[C@H]2c1ccc2cn[nH]c2c1 (racemic) [Example A2, (1R*,2S*)-2-(1H-indazol-6-yl)spiro[cyclopropane-1,3′-indolin]-2′-one]
[1]
  inhibition at 10 µM: 15%
[2]
  inhibition at 10 µM: -4%
[3]
  inhibition at 10 µM: 20%
[4]
  inhibition at 10 µM: 0%
[5]
  inhibition at 10 µM: -3%
[6]
  inhibition at 10 µM: 4%
[7]
  inhibition at 10 µM: 4%
[8]
  inhibition at 10 µM: -2%
[9]
  inhibition at 10 µM: -10%
[10]
  inhibition at 10 µM: -2%
[11]
  inhibition at 10 µM: 0%
[12]
  inhibition at 10 µM: 4%
[13]
  inhibition at 10 µM: 1%
[14]
  inhibition at 10 µM: -2%
[15]
  inhibition at 10 µM: 7%
[16]
  inhibition at 10 µM: -4%
[17]
  inhibition at 10 µM: 4%
[18]
  inhibition at 10 µM: 7%
[19]
  inhibition at 10 µM: 14%
[20]
  inhibition at 10 µM: 17%
[21]
  inhibition at 10 µM: 14%
[22]
  inhibition at 10 µM: 9%
[23]
  inhibition at 10 µM: 62%
[24]
  inhibition at 10 µM: 4%
[25]
  inhibition at 10 µM: 17%
[26]
  inhibition at 10 µM: 3%
[27]
  inhibition at 10 µM: 4%
[28]
  inhibition at 10 µM: 39%
[29]
  inhibition at 10 µM: 1%
[30]
  inhibition at 10 µM: 11%
[31]
  inhibition at 10 µM: 1%
[32]
  inhibition at 10 µM: 9%
[33]
  inhibition at 10 µM: -10%
[34]
  inhibition at 10 µM: 7%
[35]
  inhibition at 10 µM: 6%
[36]
  inhibition at 10 µM: 54%
[37]
  inhibition at 10 µM: 41%
[38]
  inhibition at 10 µM: -10%
[39]
  inhibition at 10 µM: 4%
[40]
  inhibition at 10 µM: 26%

## COc1ccc2c(c1)[C@]1(C[C@H]1c1ccc3c(-c4ccc(N5CCN(C)CC5)nc4)n[nH]c3c1)C(=O)N2 (relative stereo) [Example A13, (1R*,2S*)-5′-Methoxy-2-(3-(6-(4-methylpiperazin-1-yl)pyridin-3-yl)-1H-indazol-6-yl)spiro[cyclopropane-1,3′-indolin]-2′-one]
[41]
  anti-angiogenic effect (tube formation): anti-agiogenic effects at submicromolar concentrations
[42]
  % Inhibition @ 10 uM, AMPKalpha: 8%
[43]
  inhibition at 1 µM: < 50%
[21]
  inhibition at 10 µM: 6%
[23]
  inhibition at 10 µM: 86%

## O=C1Nc2ccccc2[C@]12C[C@H]2c1ccc2c(/C=C/c3ccncc3)n[nH]c2c1 (relative stereo) [Example A22, 1R*,2S*)-(E)-2-(3-(2-(pyridin-4-yl)vinyl)-1H-indazol-6-yl)spiro-[cyclo-propane-1,3′-indolin]-2′-one]
[1]
  inhibition at 10 µM: 97%
[2]
  inhibition at 10 µM: 37%
[3]
  inhibition at 10 µM: 22%
[41]
  anti-angiogenic effect (tube formation): anti-agiogenic effects at submicromolar concentrations
[4]
  inhibition at 10 µM: -6%
[5]
  inhibition at 10 µM: 71%
[6]
  inhibition at 10 µM: 69%
[7]
  inhibition at 10 µM: 21%
[8]
  inhibition at 10 µM: 32%
[9]
  inhibition at 10 µM: 26%
[10]
  inhibition at 10 µM: 7%
[11]
  inhibition at 10 µM: 56%
[12]
  inhibition at 10 µM: 12%
[44]
  inhibition at 10 µM: ≤ 50%
[13]
  inhibition at 10 µM: 41%
[14]
  inhibition at 10 µM: -1%
[15]
  inhibition at 10 µM: 87%
[16]
  inhibition at 10 µM: 4%
[17]
  inhibition at 10 µM: 8%
[18]
  inhibition at 10 µM: 8%
[19]
  inhibition at 10 µM: 99%
[20]
  inhibition at 10 µM: 48%
[45]
  inhibition at 10 µM: 93%
[21]
  inhibition at 10 µM: 98%
[22]
  inhibition at 10 µM: 11%
[23]
  inhibition at 10 µM: 100%
[24]
  inhibition at 10 µM: 88%
[25]
  inhibition at 10 µM: 97%
[26]
  inhibition at 10 µM: 97%
[27]
  inhibition at 10 µM: 11%
[46]
  inhibition at 10 µM: ≤ 50%
[28]
  inhibition at 10 µM: 88%
[29]
  inhibition at 10 µM: 0%
[30]
  inhibition at 10 µM: 99%
[32]
  inhibition at 10 µM: 99%
[33]
  inhibition at 10 µM: 4%
[34]
  inhibition at 10 µM: -8%
[35]
  inhibition at 10 µM: 32%
[36]
  inhibition at 10 µM: 100%
[38]
  inhibition at 10 µM: -22%
[39]
  inhibition at 10 µM: -15%
[40]
  inhibition at 10 µM: 99%

## CN(C)Cc1ccc(/C=C/c2n[nH]c3cc([C@@H]4C[C@@]45C(=O)Nc4ccccc45)ccc23)cc1 (relative stereo) [Example A23, (1R*,2S*)-(E)-2-(3-(4-((dimethylamino)methyl)styryl)-1H-indazol-6-yl)spiro[cyclopropane-1,3′-indolin]-2′-one 2,2,2-trifluoroacetate]
[41]
  anti-angiogenic effect (tube formation): anti-agiogenic effects at submicromolar concentrations
[44]
  inhibition at 10 µM: ≤ 50%
[47]
  inhibition at 10 µM: ≤ 50%
[46]
  inhibition at 10 µM: ≤ 50%
